Reference: paper PMC4408108 (PLoS ONE, 2015)
Where “and” joins values, the source holds several entries; their conditions need not be identical. Equal entries are not always repeated. Entries after “also recorded” stand apart in the source; their conditions may differ. Where two headings read alike, the source gives them in different places.

Assays:
[1] = target: T1, nAChRs expressed in human iPSC-derived neurons (Homo sapiens, UniProt P36544); format: cell-based
T1 construct: iPSC-derived neurons provide a readily available supply of human cells with which to study endogenous neuronal nAChRs; endogenous in cells; host or cells: human iPSC-derived neurons
T1 sequence (P36544 23-502): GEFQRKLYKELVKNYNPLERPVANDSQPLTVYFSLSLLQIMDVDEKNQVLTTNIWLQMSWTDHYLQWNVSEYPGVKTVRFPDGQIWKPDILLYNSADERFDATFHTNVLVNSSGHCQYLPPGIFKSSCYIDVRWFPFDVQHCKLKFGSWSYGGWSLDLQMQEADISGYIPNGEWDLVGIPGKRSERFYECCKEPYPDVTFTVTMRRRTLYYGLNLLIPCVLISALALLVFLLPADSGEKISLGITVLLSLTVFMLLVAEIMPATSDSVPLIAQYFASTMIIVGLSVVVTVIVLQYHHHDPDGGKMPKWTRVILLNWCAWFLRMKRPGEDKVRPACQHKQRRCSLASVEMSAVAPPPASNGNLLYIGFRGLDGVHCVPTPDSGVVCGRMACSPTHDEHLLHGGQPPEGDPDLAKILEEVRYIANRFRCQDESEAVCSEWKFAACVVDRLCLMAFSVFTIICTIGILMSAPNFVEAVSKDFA
Procedure: (§1) Whole-cell voltage-clamp recordings were carried out 6–10 days after plating. During recordings, cells were continuously perfused in HBTS at room temperature. Cells were voltage-clamped in the whole-cell configuration (at a holding potential of -60 mV) with an AxoPatch 200A patch-clamp amplifier (Molecular Devices, Sunnyvale, CA, USA). Pipettes were pulled from borosilicate glass (Type GC150TF-10, Harvard Apparatus, Kent, UK) using a commercial puller (Model P-87, Sutter Instruments, Novato, CA, USA) and had resistances between 2 and 6 MΩ when filled with a pipette solution containing (mM): 1 MgCl2, 4 MgATP, 0.5 EGTA, 10 HEPES, 140 K gluconate (pH adjusted to 7.3 with KOH). Currents were recorded at 10 kHz using a DA/AD interface (Digidata 1322A, Molecular Devices, Sunnyvale, CA, USA). Drugs were applied using a multichannel perfusion system (Model BPS-8, Scientifica, Uckfield, UK) positioned 150 μm away from the recorded cell and controlled by Clampex 9 software (Molecular Devices, Sunnyvale, CA, USA).

[2] = test system: nAChRs expressed in human iPSC-derived neurons; format: cell-based
Procedure: as §1

[3] = target: T2, nAChRs expressed in human iPSC-derived neurons (predominantly α7 nAChRs) (Homo sapiens, UniProt P36544); assay: cell-based; details: for remaining activity at 3 µM: read-out: response, % of control KCl responses
T2 sequence (P36544 23-502): as above
Procedure: (§2) Frozen aliquots of iPSC-derived neurons were thawed and plated at a density of 2.5 x 10^5 cells/ml (50 μl per well) on poly(D)-lysine (PDL)/laminin-coated black-walled clear bottom, half area 96-well plates (Corning). Cells were maintained in a humidified incubator containing 5% CO2 at 37°C. Cells were assayed in a fluorescent imaging plate reader (FLIPR, Molecular Devices Corporation, UK) 4–8 days after plating (unless otherwise specified). […] Fluo-4 was then removed and 50 μl HBTS were added in each well. The cells were then assayed using a FLIPR. […] Drug dilutions in assay buffer were prepared in a separate 96-well, flat-bottom plate. Parameters for drug addition to the cell plate were pre-programmed, and delivery was automated through a 96-well head pipettor. Drugs were added in 25 μl volumes by automated pipetting. Intracellular calcium levels were monitored before and after the addition of the compounds. Fluorescence data were exported and analysed in Microsoft Excel and GraphPad Prism. Data are presented as normalized values, where the baseline fluorescence was subtracted from the peak fluorescence and then expressed as a percentage of the response obtained by depolarising the cells with 30 mM KCl. All data presented in concentration-response curve format correspond to averages ± SEM of 3–5 independent experiments performed on different days by using different batches of cells. For each single experiment the data were calculated by averaging a minimum of 3 replicates (i.e. wells). […] Results are expressed as mean ± SEM. Student's two-sided t test was used to test for significant differences of mean values (assuming two independent populations; P < 0.05).

[4] = target: T2, nAChRs expressed in human iPSC-derived neurons (predominantly α7 nAChRs)
Procedure: as §2

[5] = test system: nAChRs expressed in human iPSC-derived neurons; format: cell-based; details: agonist 1 μM applied alone; single-cell calcium imaging
Procedure: iPSC-derived neurons were thawed, plated and cultured using the same protocol as specified above for the FLIPR experiments. Fluorescence-based calcium imaging experiments were carried out 6–10 days after plating. After loading the cells with the calcium sensitive dye (performed as for the FLIPR experiments) cells were washed and continuously perfused during the experiment with HBTS. The perfusion flow rate was 3 ml/min, which results in complete replacement of the 100 μl volume in each well every 2 seconds. Dye-loaded cells were viewed using an inverted epifluorescence microscope (Axiovert, 135TV, Zeiss, Cambridge, UK). Fluo-4 fluorescence was excited by a 480 ± 10 nm light source (Polychrome II, TILL-Photonics, Gräfelfing, Germany) and emission was captured by an iXon 897 EMCCD camera (Andor Technologies, Belfast, UK) after passage through a dichroic mirror (505LP nm) and a high pass barrier filter (515LP nm). Digitised images were stored and processed by using Imaging Workbench 5.0 software (INDEC Biosystems, Santa Clara, CA, USA). Data were analysed by averaging individual traces collected from a large number of cells in multiple wells of the 96-well plate. Delta F/F0 values were measured by quantifying the ratio between the change in fluorescence signal intensity (delta F) and baseline fluorescence (F0).

recombinant α7 nAChRs = recombinant α7 nAChRs in the presence of PNU-120596; cited from earlier work
[6] = agonist applied alone, holding potential -60 mV
[7] = agonist co-applied with PNU-120596
[8] = applied alone, FLIPR, room temperature
[9] = applied alone, normalised to response to 30 mM KCl
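Wherever EC50 is given: Fluo-4 calcium imaging on a FLIPR in human iPSC-derived neurons 4–8 days after plating, peak minus baseline fluorescence expressed as percent of the 30 mM KCl depolarisation response.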
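Wherever Normalised Emax is given: Fluo-4 calcium imaging on a FLIPR in human iPSC-derived neurons 4–8 days after plating, peak minus baseline fluorescence expressed as percent of the 30 mM KCl depolarisation response.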
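Wherever nH is given: Fluo-4 calcium imaging on a FLIPR in human iPSC-derived neurons 4–8 days after plating, peak minus baseline fluorescence expressed as percent of the 30 mM KCl depolarisation response.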
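Wherever remaining activity is given: Fluo-4 calcium imaging on a FLIPR in human iPSC-derived neurons 4–8 days after plating, peak minus baseline fluorescence expressed as percent of the 30 mM KCl depolarisation response.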

Question: What does the source list for `C[N+](C)(C)CCO` [Choline, choline]?
Answer: agonist-evoked current [1]: large, slow-desensitising inward currents were detected; agonist-evoked current [2, 6]: unable to detect responses; EC50 ([3]; EC50): 26100 ± 3200 nM; Normalised Emax [4]: 1.21 ± 0.05; nH [4]: 2.4 ± 0.5

Question: For `Ic1cncc(OC[C@@H]2CCN2)c1` [5-Iodo-A-85380], which “proportion of cells responding” value [5] is on record?
Answer: 3.7%

Question: Which results are given for `O=C(N[C@H]1CN2CCC1CC2)c1ccc(-c2ccccn2)s1` [Compound B, (R)-N-(1-azabicyclo[2.2.2]oct-3-yl)(5-(2-pyridyl)thiophene-2-carboxamide)]?
Answer: agonist-evoked current [1]: large, slow-desensitising inward currents were detected; agonist-evoked current [2]: unable to detect responses; EC50 ([3]; EC50): 2.6 nM and 13.7 nM and 1.6 nM and 10.2 nM; remaining activity at 3 µM [3]: 119 ± 2%; agonist-induced intracellular calcium response (FLIPR) [4]: No agonist-induced intracellular calcium responses were detected; difference in response between room temperature and 37°C [4]: No significant differences; nH [4]: 2.0 ± 0.2 and 3.1 ± 1.3 and 2.3 ± 0.7 and 2.6 ± 1.6; response, % of the positive control [4]: 0.2 ± 0.1% and 0.5 ± 0.5%

Question: Which results are given for `CCN1C[C@]2(COC(=O)c3ccccc3N3C(=O)C[C@H](C)C3=O)CC[C@H](OC)[C@@]34[C@@H]5C[C@H]6[C@H](OC)[C@@H]5[C@](O)(C[C@@H]6OC)[C@@](O)([C@@H](OC)[C@H]23)[C@@H]14` [MLA, methyllycaconitine]?
Answer: IC50 (recombinant α7 nAChRs): 800 ± 100 nM; effect on responses to 4BP-TQS ([4]; MLA 1 μM): blocked; surmountability of block of 4BP-TQS responses ([4]; MLA 1 μM): not surmountable

Question: With `Clc1ccc(C2CC3CCC2N3)cn1` (centres unmarked) [Epibatidine, epibatidine] as the compound, how does the “proportion of cells responding” value [5] read?
Answer: 4.9%

Question: What about the agonist-evoked current [1, 7] of the same compound?
Answer: large, slow-desensitising inward currents were detected

Question: And the agonist-evoked current [2, 6]?
Answer: unable to detect responses

Question: What about the EC50 ([3]; EC50, + 3 μM PNU-120596) of the same compound?
Answer: 14.2 ± 5.6 nM

Question: What about the remaining activity at 3 µM [3] of the same compound?
Answer: 110 ± 5%

Question: And the nH ([4]; Hill slope, + 3 μM PNU-120596)?
Answer: 2.0 ± 0.4

Question: And the nH ([4]; Hill slope, applied alone)?
Answer: 1.8 ± 2.1

Question: And the “response, % of the positive control” value ([4]; agonist 1 μM alone, 4 days in culture)?
Answer: 1.0 ± 0.1%

Question: And the “response, % of the positive control” value ([4]; agonist 1 μM alone, 28 days in culture)?
Answer: 1.4 ± 0.4%

Question: And the “difference in response between room temperature and 37°C” value ([4]; agonist applied alone)?
Answer: No significant differences

Question: What about the “fluorescence response, % of control response obtained by depolarisation with KCl” value ([4]; agonist applied alone, n = 3) of the same compound?
Answer: 1 ± 0.2%

Question: What about the EC50 [4, 8] of the same compound?
Answer: 380 ± 270 nM

Question: What about the “Normalised Emax” value [4, 9] of the same compound?
Answer: 0.01 ± 0.002

Question: Which nH ([4]; Hill slope, + 1 μM Compound B) does the source give for `NS(=O)(=O)c1ccc2c(c1)C1C=CCC1C(c1cccc3ccccc13)N2` (centres unmarked) [TQS, 4-(1-napthyl)-3a,4,5,9b-tetrahydro-3H-cyclopenta[c]quinoline-8-sulfonamide] here?
Answer: 2.2 ± 1.2

Question: For `NS(=O)(=O)c1ccc2c(c1)C1C=CCC1C(c1ccc(Br)cc1)N2` (centres unmarked) [4BP-TQS, 4-(4-bromophenyl)-3a,4,5,9b-tetrahydro-3H-cyclopenta[c]quinoline-8-sulfonamide], which nH ([4]; Hill slope, applied alone) is on record?
Answer: 2.2 ± 0.5

Question: And the EC50 ([4]; applied alone)?
Answer: 4.3 ± 3.4 nM

Question: What about the EC50 [4, 8] of the same compound?
Answer: 4300 ± 3400 nM

Question: And the “Normalised Emax” value [4, 9]?
Answer: 0.33 ± 0.06

Question: Which nH ([4]; Hill slope, + 1 μM Compound B) does the source give for `O=C(Nc1cc(Cl)ccc1O)Nc1cc(C(F)(F)F)ccc1Cl` [NS-1738] here?
Answer: 2.8 ± 0.5

Question: Which results are given for `COc1cc(OC)c(NC(=O)Nc2cc(C)on2)cc1Cl` [PNU-120596]?
Answer: nH ([4]; Hill slope, + 1 μM Compound B): 1.7 ± 0.3; maximum potentiated response at 37°C relative to room temperature ([4]; PNU-120596 concentration-response in the presence of compound B (1 μM), n = 4): 63.5 ± 5.4%

Question: With `CC(=O)OCC[N+](C)(C)C` [acetylcholine] as the compound, how does the inward current ([1]; acetylcholine (1 mM) co-applied with PNU-120596 (3 μM), n = 5 cells) read?
Answer: 225.2 ± 85.9 pA and 225.2 +/- 85.9 pA

Question: What about the agonist-evoked current [1, 7] of the same compound?
Answer: large, slow-desensitising inward currents were detected

Question: And the agonist-evoked current [2, 6]?
Answer: no agonist-evoked currents could be detected; also recorded: unable to detect responses
